Test results as given in PubChem BioAssay AID248 (DTP/NCI, 2004).
Several values for one entry are separate records, joined by “and”; a condition that tells them apart may be missing. Identical values can stand only once. Toxic doses and inconclusive results are not listed. No stated cut-off is given here; in the data, active means T/C of 150% or more; inactive means T/C below 125%.

System: L1210 leukemia ip in BDF1 mice, survival T/C
Experiment: NCI In Vivo Anticancer Drug Screen. Data for tumor model L1210 Leukemia (intraperitoneal) in B6D2F1 (BDF1) mice
Conditions: endpoint: mean survival time, higher = longer survival
Outline: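 Antitumor effect is assessed in tumor-bearing animals. Survival in the compound arm is compared with a vehicle-dosed control arm and expressed as their quotient.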

[1] = dose: 100.0 mg/kg/injection, schedule: Q01DX009 (ip), vehicle: saline with Tween-80
[2] = dose: 50.0 mg/kg/injection, schedule: Q01DX001 (ip), vehicle: carboxymethylcellulose (CMC)
[3] = dose: 100.0 mg/kg/injection, schedule: Q01DX001 (ip), vehicle: Klucel (hydroxypropylcellulose) (HPC)
[4] = dose: 200.0 mg/kg/injection, schedule: Q01DX001 (ip), vehicle: Klucel (hydroxypropylcellulose) (HPC)
[5] = dose: 400.0 mg/kg/injection, schedule: Q01DX001 (ip), vehicle: Klucel (hydroxypropylcellulose) (HPC)
[6] = dose: 25.0 mg/kg/injection, schedule: Q04DX003 (ip), vehicle: saline
[7] = dose: 50.0 mg/kg/injection, schedule: Q04DX003 (ip), vehicle: saline
[8] = dose: 100.0 mg/kg/injection, schedule: Q04DX003 (ip), vehicle: saline
[9] = dose: 100.0 mg/kg/injection, schedule: Q01DX001 (ip), vehicle: saline
[10] = dose: 200.0 mg/kg/injection, schedule: Q01DX001 (ip), vehicle: saline
[11] = dose: 400.0 mg/kg/injection, schedule: Q01DX001 (ip), vehicle: saline
[12] = dose: 200.0 mg/kg/injection, schedule: Q04DX003 (ip), vehicle: saline
[13] = dose: 100.0 mg/kg/injection, schedule: Q01DX009 (ip), vehicle: Klucel (hydroxypropylcellulose) (HPC)
[14] = dose: 200.0 mg/kg/injection, schedule: Q01DX009 (ip), vehicle: Klucel (hydroxypropylcellulose) (HPC)
[15] = dose: 400.0 mg/kg/injection, schedule: Q01DX009 (ip), vehicle: Klucel (hydroxypropylcellulose) (HPC)

Measured: T/C

CC1(C)N=C(N)Nc2nnc(-c3ccc(F)cc3)n21
inactive: dose: 100.0 mg/kg/injection, schedule: Q04DX003 (ip), vehicle: saline sonified 89 % of control | dose: 200.0 mg/kg/injection, schedule: Q04DX003 (ip), vehicle: saline sonified 101 % of control | dose: 400.0 mg/kg/injection, schedule: Q04DX003 (ip), vehicle: saline sonified 89 % of control

COc1ccccc1/C=C/C(=O)c1ccccc1
inactive: [1] 89 % of control | dose: 100.0 mg/kg/injection, schedule: Q04DX003 (ip), vehicle: saline with Tween-80 98 % of control | dose: 200.0 mg/kg/injection, schedule: Q04DX003 (ip), vehicle: saline with Tween-80 94 % of control | dose: 400.0 mg/kg/injection, schedule: Q01DX009 (ip), vehicle: saline with Tween-80 89 % of control | dose: 400.0 mg/kg/injection, schedule: Q04DX003 (ip), vehicle: saline with Tween-80 96 % of control

[Cu+2].[O-]c1ccc(Br)c2cccnc12.[O-]c1ccc(Br)c2cccnc12
inactive: dose: 25.0 mg/kg/injection, schedule: Q01DX001 (ip), vehicle: carboxymethylcellulose (CMC) 103 % of control | [2] 105 % of control

CS(=O)(=O)OC1C2(c3ccccc3)C=CCC1(c1ccccc1)C(c1ccccc1)=C2c1ccccc1 (stereo not given)
inactive: [3] 98 % of control | [4] 101 % of control | [5] 98 % of control

CCOC(=O)c1cnc(SC)nc1Nc1ccccc1N
inactive: dose: 50.0 mg/kg/injection, schedule: Q01DX001 (ip), vehicle: Klucel (hydroxypropylcellulose) (HPC) 94 % of control | [3] 94 % of control | [4] 101 % of control

O=C(O)c1cc(Br)c2ccccc2c1O
inactive: dose: 25.0 mg/kg/injection, schedule: Q01DX009 (ip), vehicle: saline sonified 103 % of control | dose: 50.0 mg/kg/injection, schedule: Q01DX009 (ip), vehicle: saline sonified 108 % of control | dose: 100.0 mg/kg/injection, schedule: Q01DX009 (ip), vehicle: saline sonified 100 % of control | dose: 100.0 mg/kg/injection, schedule: Q04DX003 (ip), vehicle: Klucel (hydroxypropylcellulose) (HPC) 104 % of control

CCOC(=O)/C(=C\c1ccccn1)C(C)=O
inactive: [6] 102 % of control | [7] 102 % of control | [8] 102 % of control

CSc1ccc(NC(=O)NCCCCCCNC(=O)Nc2ccc(SC)cc2)cc1
inactive: dose: 50.0 mg/kg/injection, schedule: Q01DX009 (ip), vehicle: saline with Tween-80 93 % of control | [1] 96 % of control | dose: 200.0 mg/kg/injection, schedule: Q01DX009 (ip), vehicle: saline with Tween-80 90 % of control

CCCCCCP(=S)(CCCC)CCCCCC
inactive: dose: 100.0 mg/kg/injection, schedule: Q04DX002 (ip), vehicle: Klucel (hydroxypropylcellulose) (HPC) 102 % of control | dose: 200.0 mg/kg/injection, schedule: Q04DX002 (ip), vehicle: Klucel (hydroxypropylcellulose) (HPC) 102 % of control | dose: 400.0 mg/kg/injection, schedule: Q04DX002 (ip), vehicle: Klucel (hydroxypropylcellulose) (HPC) 102 % of control

CC1(C)N=C(N)N=C(N)N1c1cccc(C(=O)O)c1
inactive: dose: 25.0 mg/kg/injection, schedule: Q01DX001 (ip), vehicle: saline 100 % of control | dose: 50.0 mg/kg/injection, schedule: Q01DX001 (ip), vehicle: saline 102 % of control | [9] 105 % of control

CC1=C(C)CC2C(=O)C=CC(=O)C2C1 (stereo not given)
inactive: dose: 50.0 mg/kg/injection, schedule: Q01DX009 (ip), vehicle: water 97 % of control | dose: 100.0 mg/kg/injection, schedule: Q01DX009 (ip), vehicle: water 97 % of control and 101 % of control | dose: 100.0 mg/kg/injection, schedule: Q04DX003 (ip), vehicle: water 89 % of control | dose: 200.0 mg/kg/injection, schedule: Q01DX009 (ip), vehicle: water 95 % of control | dose: 200.0 mg/kg/injection, schedule: Q04DX003 (ip), vehicle: water 101 % of control

CC(C)CCCC(C)C1CCC2C3CC(=O)NC4CC(Cl)CCC4(C)C3CCC12C (stereo not given)
inactive: [9] 89 % of control | [8] 86 % of control | [10] 93 % of control | [11] 91 % of control

CC(=O)Nc1nc(C)c(CCC#N)c(=O)[nH]1
inactive: dose: 100.0 mg/kg/injection, schedule: Q01DX009 (ip), vehicle: saline 101 % of control | [8] 96 % of control | dose: 200.0 mg/kg/injection, schedule: Q01DX009 (ip), vehicle: saline 101 % of control | [12] 91 % of control | dose: 400.0 mg/kg/injection, schedule: Q01DX009 (ip), vehicle: saline 95 % of control | dose: 400.0 mg/kg/injection, schedule: Q04DX003 (ip), vehicle: saline 101 % of control

O=C(CCBr)Nc1ccc(Cl)cc1C(=O)c1ccccc1
inactive: [13] 102 % of control | [14] 97 % of control | [15] 100 % of control

CNC(=O)NC(=O)C(C)(C)Oc1ccc(Cl)cc1
inactive: [8] 97 % of control | [12] 94 % of control

CN(C)CCCN1c2ccccc2CCc2ccccc21
inactive: dose: 3.12 mg/kg/injection, schedule: Q01DX009 (ip), vehicle: saline 96 % of control | dose: 6.25 mg/kg/injection, schedule: Q01DX009 (ip), vehicle: saline 101 % of control | dose: 12.5 mg/kg/injection, schedule: Q01DX009 (ip), vehicle: saline 93 % of control | dose: 25.0 mg/kg/injection, schedule: Q01DX009 (ip), vehicle: saline 104 % of control | [6] 100 % of control | dose: 50.0 mg/kg/injection, schedule: Q01DX009 (ip), vehicle: saline 101 % of control | [7] 93 % of control | [9] 94 % of control | [10] 90 % of control

O=C(O)c1ccnc(-c2ccc(Cl)cc2)c1
inactive: [8] 90 % of control | [12] 92 % of control

CNC(=O)Oc1cc(OC)ccc1C(=O)c1ccccc1
inactive: [13] 94 % of control | [14] 96 % of control | [15] 97 % of control

O=C(Nc1ccccc1)NC1CCCCC1
inactive: [3] 100 % of control | [4] 95 % of control | [5] 101 % of control

Cc1ccc2cc(N(C)C)ccc2[n+]1C
inactive: dose: 3.13 mg/kg/injection, schedule: Q04DX003 (ip), vehicle: saline 101 % of control | dose: 6.25 mg/kg/injection, schedule: Q04DX003 (ip), vehicle: saline 106 % of control | dose: 12.5 mg/kg/injection, schedule: Q04DX003 (ip), vehicle: saline 96 % of control and 109 % of control

CC(C)(C)C(C)(C)O
inactive: dose: 75.0 mg/kg/injection, schedule: Q01DX001 (ip), vehicle: saline with Tween-80 100 % of control | dose: 150.0 mg/kg/injection, schedule: Q01DX001 (ip), vehicle: saline with Tween-80 97 % of control | dose: 300.0 mg/kg/injection, schedule: Q01DX001 (ip), vehicle: saline with Tween-80 92 % of control

CC(CC(C)(C)C(C)(C)C)C(C)(C)C (stereo not given)
inactive: [9] 90 % of control | [10] 100 % of control | [11] 107 % of control

O=[N+]([O-])c1ccc(N=N/C(=N\Nc2ccccc2)c2ccccc2)cc1
inactive: [13] 89 % of control | [14] 89 % of control | [15] 94 % of control

CCCCCCCCCCCCCCN=C(N)N
inactive: [2] 105 % of control | dose: 100.0 mg/kg/injection, schedule: Q01DX001 (ip), vehicle: carboxymethylcellulose (CMC) 97 % of control | dose: 200.0 mg/kg/injection, schedule: Q01DX001 (ip), vehicle: carboxymethylcellulose (CMC) 97 % of control | dose: 400.0 mg/kg/injection, schedule: Q01DX001 (ip), vehicle: carboxymethylcellulose (CMC) 94 % of control
